Assay results reported in PMC7395176, “Retromer stabilization results in neuroprotection in a model of Amyotrophic Lateral Sclerosis” (Nature Communications, 2020).
Several values for one entry are separate records, joined by “and”; a condition that tells them apart may be missing. Equal entries are not always repeated.

Experiments:
Neuro2a cells = test: Neuro2a cell survival (CCK8) with increasing 2a concentrations; assay type: cell-based; settings: 48 h
Description: We assessed the cytotoxicity of compound 2a, measuring survival of Neuro2a cells exposed to increasing 2a concentrations. […] We next checked for toxic effects of compound 2a in primary neuronal cultures coupled with Micro Electrode Array (MEA) devices. Mouse cortical neurons (E16.5) were plated on MEAs, kept in culture for 14 days to develop firing activity and recorded in presence of 2a.
Cell survival experiments were run on 96-well plates using Cell Counting Kit-8 (CCK8) survival kit (96992-Sigma–Aldrich) according the manufacturer’s recommendations. Compound 2a cytotoxicity was tested on Neuro2a cells receiving increasing amounts of compound 2a (1, 10, 50, 100, 200, 500, and 1000 µM) for 48 h. Data were acquired using an Epoch spectrophotometer equipped with the GEN5 (2.03.1) software (Agilent).

[1] = system: SOD1^G93A-transfected Neuro2a cells; test: Golgi morphology (Golgin97) in SOD1G93A-transfected Neuro2a cells; assay type: cell-based; settings: 10 µM
Description: The Golgi apparatus is affected in MNs from ALS patients and in cells overexpressing mutant SOD1 forms[35]–[37]. We transiently transfected Neuro2a cells with plasmids encoding SOD1^G93A before treatment with compound 2a. […] We next determined the viability of Neuro2a cells transfected with SOD1^G93A and exposed to compound 2a using a colorimetric assay. Controls cells received LacZ plasmids. […] We observed a slight, but not significant, reduction of cell viability in […] Neuro2a cells (Fig. 3b). […] The increased cell viability provided by compound 2a could result from unknown, nonspecific off-target effects. Therefore, we used plasmids encoding VPS35 to increase/stabilize the retromer complex. […] However, this phenotype was reverted co-transfecting VPS35 and SOD1^G93A plasmids (Fig. 3c).
Golgi morphology was assessed in control or in Neuro2a cells receiving G93A plasmids with or without compound 2a (10 µM) as well as in GFP-transfected cells as additional control. We used Golgin97 immunofluorescence to label trans-Golgi network membranes. We classified Golgi morphology as follow: normal (polarized network), intermediate (partially fragmented) or fragmented (severely fragmented with Golgi stacks dispersed in the cytoplasm throughout). […] Golgi subclasses were expressed as a percent of the total number of Golgi scored for each experimental condition.

VPS26 = VPS26 / VPS26b levels in MNs and lumbar SC of treated G93A mice; assay type: in vivo; settings: 10 mg/kg, day 100
CI-MPR = CI-MPR fluorescence in MNs of treated G93A mice; assay type: in vivo; settings: 10 mg/kg, day 100
Description: We next asked whether increasing VPS35/26 protein levels is sufficient to increase retromer functionality. CI-MPR is unstable in VPS26-knockout cells, and we observed a substantial reduction of CI-MPR MFI levels in MNs of vehicle-treated G93A mice compared with WT litters (Fig. 6c). […] Sortilin encodes a receptor belonging to the Vps10 family involved in Frontotemporal Dementia (FTD)[45], which shares functional homologies with MPRs and is another retromer cargo[46].
(§1) Fluorescence intensity levels of VPS35, VPS26, CI-MPR, Sortilin, CTSD and Ubiquitin were calculated using NHI-Image J software (US National Institutes of Health) according to the following protocol: stacks of confocal images were used to generate the maximal projections using the Leica Application Suite X (2.0.0.14332) software and then postprocessed by NHI-Image J to crop single NeuN^+ MNs from the ventral horn of the spinal cord. We next performed background (calculated on adjacent slices only receiving secondary antibodies) subtraction for each channel, before applying the NHI-Image J mean filter (with radius 2.0 pixels) to calculate mean NeuN fluorescence levels in individual MNs. Using this approach, we established a region of interest (ROI) to gate single MNs. On this ROI, we measured mean fluoresce levels (MFI) of target proteins.

[2] = system: poly-ubiquitinated proteins; test: Poly-ubiquitinated proteins in lumbar SC and MNs of treated G93A mice; assay type: in vivo; settings: 10 mg/kg, day 100
Description: Ubiquitinated inclusions accumulate in MNs from sALS and fALS patients, and in ALS mice[51]. We characterized poly-ubiquitinated proteins in lumbar SCs protein extracts by 10% denaturating PAGE. Protein extracts from Neuro2a cells treated with the proteasome inhibitor Bortezomib (BTZ), able to increase poly-ubiquitination, were used as an experimental control[52] (Fig. 7a). […] We next scored ubiquitin MFI levels in ventral horn MNs of G93A mice. […] (Fig. 7c and d). We next scored the Golgi apparatus in G93A mice by labeling lumbar sections for the cis-Golgi matrix protein GM130[54]. […] (Fig. 7e).
as §1, with “Using this approach, we established a region of interest (ROI) to gate single MNs.” left out

VPS35 = VPS35 (Mus musculus, UniProt Q9EQH3+Q9QZ88); test: VPS35 levels in MNs and lumbar SC of treated G93A mice; assay type: in vivo; parameters: from tissue; host or cells: mouse (lumbar) spinal cord, motor neurons; settings: 10 mg/kg, day 100
Description: We asked whether compound 2a could do the same in G93A MNs, using confocal microscopy to quantify VPS35 fluorescence levels in MNs gated in the ventral horn of lumbar SCs. We observed a significant reduction of VPS35 mean fluorescence intensity (MFI) levels in vehicle-treated G93A mice. […] We next assayed VPS26 MFI levels on parallel sections.
as §1
Compound 2a increases VPS35 levels in G93A mice […]

With `NC(N)=N/N=C/c1cccc(/C=N/N=C(N)N)c1` [compound 2a, phenyl-1,3-bis-guanylhydrazone] the cell survival (Neuro2a cells; 10 μM) was “did not affect cell survival”, the LD50 (Neuro2a cells; 1–1000 µM) was 257.9 µM and ~260 µM and the trans-Golgi fragmentation [1] was “significantly reverted this phenotype”. For the same molecule, the “VPS26b levels in lumbar SC extracts (WB)” value (VPS26) was “increase VPS35 and VPS26b levels”, the “CI-MPR MFI levels in MNs” value (CI-MPR) was “significantly increased” and the “poly-ubiquitinated proteins in lumbar SC extracts (WB)” value [2] was “substantially reduced”. For the same molecule, the “ubiquitin MFI levels in ventral horn MNs” value [2] was “vehicle-treated G93A MNs were higher than in compound 2a-treated G93A mice”, the “VPS35 levels in lumbar SC extracts (WB)” value (VPS35) was “increase VPS35 and VPS26b levels” and the “VPS35 mean fluorescence intensity (MFI) in MNs” value (VPS35) was “significantly increased”.
